ChEMBL document CHEMBL4028849 (J Med Chem, 2017)

Test: n-Octanol-water partition co-efficient, log P of the compound at 1 mg/ml by HPLC analysis
Type: physicochemical
Conditions: not given

| logP | SMILES |
| --- | --- |
| 2.48 | COc1ccc2c(c1)NC(=O)CN2c1nc(N2CCC(F)(F)C2)nc2ccccc12 |
| 2.77 | CNc1nc(N2CC(=O)Nc3cc(OC)ccc32)c2ccccc2n1 |
| 2.14 | COc1ccc2c(c1)NC(=O)CN2c1nc(CO)nc2ccccc12 |
| 2.94 | COc1ccc2c(c1)NC(=O)CN2c1nc(Cl)nc2ccccc12 |
| 2.14 | COc1ccc2c(c1)NC(=O)CN2c1nc(N2CC(F)(F)C2)nc2ccccc12 |

Continued, compound first:

| SMILES | logP |
| --- | --- |
| CCCCNc1nc(N2CC(=O)Nc3cc(OC)ccc32)c2ccccc2n1 | 3.91 |
| COc1ccc2c(c1)NC(=O)CN2c1nc(COC(C)=O)nc2ccccc12 | 2.7 |
| COc1ccc2c(c1)NC(=O)CN2c1nc(NC2CC2)nc2ccccc12 | 2.26 |
| CCNc1nc(N2CC(=O)Nc3cc(OC)ccc32)c2ccccc2n1 | 2.56 |
| COc1ccc2c(c1)NC(=O)CN2c1nc(NCCCO)nc2ccccc12 | 2.6 |
| COc1ccc2c(c1)NC(=O)CN2c1nc(NC2CCCC2)nc2ccccc12 | 2.33 |

Test: Terminal half life in Sprague-Dawley rat at 1 mg/kg, iv
Type: ADME, organism-based
Conditions: in vivo, read-out: beta t1/2 (converted)

| SMILES | half-life |
| --- | --- |
| COc1ccc2c(c1)NC(=O)CN2c1nc(C)nc2ccccc12 | 52 h |
